ChEMBL document CHEMBL3885881, “DrugMatrix”

Species on record: Rattus norvegicus
Experiment: DrugMatrix - Regimen: Daily Repeat
Format: toxicity, organism-based, Sprague-Dawley
Parameters: regimen Daily Repeat, gender Male, age 6-8 weeks
Details: in vivo, po, route oral GAVAGE, […]; for ABSOLUTE BASOPHIL / ABSOLUTE EOSINOPHIL / ABSOLUTE LYMPHOCYTE / ABSOLUTE MONOCYTE / ABSOLUTE SEGMENTED NEUTROPHIL / BASOPHIL / EOSINOPHIL / ERYTHROCYTE COUNT / HEMATOCRIT / HEMOGLOBIN / LEUKOCYTE COUNT / LYMPHOCYTE / MEAN CORPUSCULAR HEMOGLOBIN / MEAN CORPUSCULAR HEMOGLOBIN CONCENTRATION / MEAN CORPUSCULAR VOLUME / MONOCYTE / NEUTROPHIL / NUCLEATED RED BLOOD CELLS / PLATELET COUNT: tissue Blood; for ALANINE AMINOTRANSFERASE / ALBUMIN / ALKALINE PHOSPHATASE / ASPARTATE AMINOTRANSFERASE / BLOOD UREA NITROGEN / CARBON DIOXIDE / CHLORIDE / CHOLESTEROL / CREATINE PHOSPHOKINASE / CREATININE / GLUCOSE / LACTATE DEHYDROGENASE / LIPASE / PHOSPHORUS / POTASSIUM / SODIUM / TOTAL BILIRUBIN / TOTAL PROTEIN / URIC ACID: tissue Plasma
[1] = 0 mg/kg, 72 h, dose level Control, time 3 day
[2] = 0 mg/kg, 120 h, dose level Control, time 5 day
[3] = 3 mg/kg, 72 h, dose level Low, time 3 day

SMILES: CC#C[C@]1(O)CC[C@H]2[C@@H]3CCC4=CC(=O)CCC4=C3[C@@H](c3ccc(N(C)C)cc3)C[C@@]21C [MIFEPRISTONE]
- ABSOLUTE BASOPHIL [1]: 0 CELLS/uL
- ABSOLUTE EOSINOPHIL [1]: 14 CELLS/uL
- ABSOLUTE LYMPHOCYTE [1]: 11144.67 CELLS/uL
- ABSOLUTE MONOCYTE [1]: 22.5 CELLS/uL
- ABSOLUTE SEGMENTED NEUTROPHIL [1]: 535.5 CELLS/uL
- BASOPHIL [1]: 0%
- EOSINOPHIL [1]: 0.17%
- ERYTHROCYTE COUNT [1]: 5.08 x10E6/uL
- HEMATOCRIT [1]: 32.32%
- HEMOGLOBIN [1]: 12.87 G/DL
- LEUKOCYTE COUNT [1]: 11.72 x10E3/uL
- LYMPHOCYTE [1]: 94.67%
- MEAN CORPUSCULAR HEMOGLOBIN [1]: 25.37 pg
- MEAN CORPUSCULAR HEMOGLOBIN CONCENTRATION [1]: 39.85 G/DL
- MEAN CORPUSCULAR VOLUME [1]: 63.58 fL
- MONOCYTE [1]: 0.17%
- NEUTROPHIL [1]: 5%
- NUCLEATED RED BLOOD CELLS [1]: 0 /100WBC
- PLATELET COUNT [1]: 1084 x10E3/uL
- ALANINE AMINOTRANSFERASE [1]: 67.5 u/L
- ALBUMIN [1]: 4.02 G/DL
- ALKALINE PHOSPHATASE [1]: 374.17 u/L
- ASPARTATE AMINOTRANSFERASE [1]: 83.5 u/L
- BLOOD UREA NITROGEN [1]: 14.5 mg/dL
- CARBON DIOXIDE [1]: 30 mmol/L
- CHLORIDE [1]: 100.5 MEQ/L
- CHOLESTEROL [1]: 71.33 mg/dL
- CREATINE PHOSPHOKINASE [1]: 268.33 u/L
- CREATININE [1]: 0.16 mg/dL
- GLUCOSE [1]: 170.5 mg/dL
- LACTATE DEHYDROGENASE [1]: 81.17 u/L
- LIPASE [1]: 16.67 u/L
- PHOSPHORUS [1]: 10.07 mg/dL
- POTASSIUM [1]: 5.03 MEQ/L
- SODIUM [1]: 142.92 MEQ/L
- TOTAL BILIRUBIN [1]: 0.17 mg/dL
- TOTAL PROTEIN [1]: 5.63 G/DL
- URIC ACID [1]: 0.5 mg/dL
- ABSOLUTE BASOPHIL [2]: 0 CELLS/uL
- ABSOLUTE EOSINOPHIL [2]: 37.5 CELLS/uL
- ABSOLUTE LYMPHOCYTE [2]: 8049.5 CELLS/uL
- ABSOLUTE MONOCYTE [2]: 82.83 CELLS/uL
- ABSOLUTE SEGMENTED NEUTROPHIL [2]: 646.83 CELLS/uL
- BASOPHIL [2]: 0%
- EOSINOPHIL [2]: 0.5%
- ERYTHROCYTE COUNT [2]: 5.36 x10E6/uL
- HEMATOCRIT [2]: 33.9%
- HEMOGLOBIN [2]: 13.02 G/DL
- LEUKOCYTE COUNT [2]: 8.82 x10E3/uL
- LYMPHOCYTE [2]: 90.17%
- MEAN CORPUSCULAR HEMOGLOBIN [2]: 24.32 pg
- MEAN CORPUSCULAR HEMOGLOBIN CONCENTRATION [2]: 38.42 G/DL
- MEAN CORPUSCULAR VOLUME [2]: 63.32 fL
- MONOCYTE [2]: 1.17%
- NEUTROPHIL [2]: 8.17%
- NUCLEATED RED BLOOD CELLS [2]: 0.17 /100WBC
- PLATELET COUNT [2]: 1231.5 x10E3/uL
- ALANINE AMINOTRANSFERASE [2]: 62 u/L
- ALBUMIN [2]: 3.97 G/DL
- ALKALINE PHOSPHATASE [2]: 303.67 u/L
- ASPARTATE AMINOTRANSFERASE [2]: 84.5 u/L
- BLOOD UREA NITROGEN [2]: 14.83 mg/dL
- CARBON DIOXIDE [2]: 31.83 mmol/L
- CHLORIDE [2]: 97 MEQ/L
- CHOLESTEROL [2]: 68.83 mg/dL
- CREATINE PHOSPHOKINASE [2]: 411.33 u/L
- CREATININE [2]: 0.16 mg/dL
- GLUCOSE [2]: 170.17 mg/dL
- LACTATE DEHYDROGENASE [2]: 88.5 u/L
- LIPASE [2]: 9.5 u/L
- PHOSPHORUS [2]: 9.98 mg/dL
- POTASSIUM [2]: 5.72 MEQ/L
- SODIUM [2]: 141.62 MEQ/L
- TOTAL BILIRUBIN [2]: 0.1 mg/dL
- TOTAL PROTEIN [2]: 5.67 G/DL
- URIC ACID [2]: 0.52 mg/dL
- ABSOLUTE BASOPHIL [3]: 0 CELLS/uL
- ABSOLUTE EOSINOPHIL [3]: 0 CELLS/uL
- ABSOLUTE LYMPHOCYTE [3]: 9937.33 CELLS/uL
- ABSOLUTE MONOCYTE [3]: 98.67 CELLS/uL
- ABSOLUTE SEGMENTED NEUTROPHIL [3]: 897.33 CELLS/uL
- BASOPHIL [3]: 0%
- EOSINOPHIL [3]: 0%
- ERYTHROCYTE COUNT [3]: 4.8 x10E6/uL
- HEMATOCRIT [3]: 31.67%
- HEMOGLOBIN [3]: 12.47 G/DL
- LEUKOCYTE COUNT [3]: 10.93 x10E3/uL
- LYMPHOCYTE [3]: 91.33%
- MEAN CORPUSCULAR HEMOGLOBIN [3]: 25.97 pg
- MEAN CORPUSCULAR HEMOGLOBIN CONCENTRATION [3]: 39.4 G/DL
- MEAN CORPUSCULAR VOLUME [3]: 66.03 fL
- MONOCYTE [3]: 1%
- NEUTROPHIL [3]: 7.67%
- NUCLEATED RED BLOOD CELLS [3]: 0 /100WBC
- PLATELET COUNT [3]: 1024.33 x10E3/uL
- ALANINE AMINOTRANSFERASE [3]: 67 u/L
- ALBUMIN [3]: 3.93 G/DL
- ALKALINE PHOSPHATASE [3]: 384 u/L
- ASPARTATE AMINOTRANSFERASE [3]: 83 u/L
- BLOOD UREA NITROGEN [3]: 13 mg/dL
- CARBON DIOXIDE [3]: 30.33 mmol/L
- CHLORIDE [3]: 100.67 MEQ/L
- CHOLESTEROL [3]: 68 mg/dL
- CREATINE PHOSPHOKINASE [3]: 246.67 u/L
- CREATININE [3]: 0.12 mg/dL
- GLUCOSE [3]: 171 mg/dL
- LACTATE DEHYDROGENASE [3]: 78.33 u/L
- LIPASE [3]: 10 u/L
- PHOSPHORUS [3]: 10.13 mg/dL
- POTASSIUM [3]: 5.79 MEQ/L
- SODIUM [3]: 143.5 MEQ/L
- TOTAL BILIRUBIN [3]: 0.17 mg/dL
- TOTAL PROTEIN [3]: 5.6 G/DL
- URIC ACID [3]: 0.57 mg/dL
